Test results taken from ChEMBL document CHEMBL3758152, “11-Hydroxylation of Protoberberine by the Novel Berberine-Utilizing Aerobic Bacterium Sphingobium sp. Strain BD3100” (2015).
The source made the active and inactive calls. The rule behind the calls is not given here.

Legend:
Staphylococcus aureus [1] = test: Antibacterial activity against Staphylococcus aureus H209P at 250 nmol/disk after 12 hrs by paper disk method; format: functional, organism-based
Staphylococcus aureus [2] = test: Antibacterial activity against Staphylococcus aureus H209P at 125 nmol/disk after 12 hrs by paper disk method; format: functional

Structure (SMILES)	Activity (Staphylococcus aureus [1])	diameter of the inhibition zone (DIZ) (Staphylococcus aureus [2]) [mm]
COc1cc2c(cc1OC)-c1cc3cc(O)c(OC)c(OC)c3c[n+]1CC2	inactive	
COc1ccc2cc3[n+](cc2c1OC)CCc1cc2c(cc1-3)OCO2 [BERBERINE]		12
COc1c(O)cc2cc3[n+](cc2c1OC)CCc1cc(O)c(O)cc1-3	inactive	
COc1c(O)cc2cc3[n+](cc2c1OC)CCc1cc2c(cc1-3)OCO2	inactive	
